From patent US20050282877A1, “Method of decreasing inflammation in kidney transplantion using angiotensin receptor blockers” (priority 2004, published 2005)

Legend:
[1] = cited from earlier work
[2] = system: plasma proteins; settings: in vivo; cited from earlier work
[3] = system: urinary H2O2; experiment: Detection of urinary hydrogen peroxide (H2O2) in kidney transplant recipients with CAN; type: in vivo, human; settings: mean±SD
Method: The study, enrollment process, and protocols described herein were approved by the University of Wisconsin Institutional Review Board. Individuals with evidence of chronic allograft dysfunction have allograft functionality greater than 6 months with serum creatinine≧0.3 mg/dl above discharge creatinine. In the absence of acute rejection, these individuals have obstructive uropathy or urinary tract infection. To be eligible for the study, individuals also had concomitant evidence of elevated blood pressure (>140/80) and/or proteinuria (>2+ on dipstick urinalysis or spot urine protein-to-creatinine ratio>1).
(§1) Once identified, study subjects were randomized and treated with either losartan (25-100 mg) as part of their anti-hypertensive regimen or with other types of anti-hypertensive agents, e.g., calcium channel blockers. Agents functioning as AT1R blockers were excluded. Neither group received ACE inhibitors. Study subjects were maintained on their standard immunosuppressive regimen (corticosteroids 5-10 mg orally daily; mycophenolate mofetil 500 to 1000 mg orally twice a day; and calcineurin inhibition with either tacrolimus (target levels 2-5 ng/ml), cyclosporine A (target levels 100-150 ng/ml), or rapamycin (target levels 5-15 ng/ml ).
(§2) Study subjects underwent biopsies at the initiation of the study. Simultaneously, whole blood samples were obtained for analysis of peripheral blood lymphocyte proliferation and stimulated cytokine production. Subsequent whole blood samples were obtained at three-month intervals for serial analyses. […] Estimated glomerular filtration rate (eGFR) was assessed using the second equation derived by Nankivell. […]
The Amplex Red Hydrogen Peroxide/Peroxidase Assay Kit (Molecular Probes, Eugene, Ore.) was used according to the manufacturer's instructions to measure H2O2. […] A microplate reader with fluorescence emission detection at 590 nm was used to measure H2O2 levels. H2O2 concentrations were read from the standard curve.

[4] = system: peripheral blood lymphocytes (PBLs); experiment: Proliferation assay ([3H]-thymidine) of CD3/CD28-stimulated PBLs from CAN patients; type: in vivo, human
Method: Once identified, study subjects were randomized and treated with either losartan (25-100 mg) as part of their anti-hypertensive regimen or with other types of anti-hypertensive agents, e.g., calcium channel blockers. Agents functioning as AT1R blockers were excluded. Neither group received ACE inhibitors. Study subjects were maintained on their standard immunosuppressive regimen (corticosteroids 5-10 mg orally daily; mycophenolate mofetil 500 to 1000 mg orally twice a day; and calcineurin inhibition with either tacrolimus (target levels 2-5 ng/ml), cyclosporine A (target levels 100-150 ng/ml), or rapamycin (target levels 5-15 ng/ml ). Eight to nine milliliters of whole blood taken at each time point from each individual were incubated at room temperature in 40 ml ACK lysis buffer (150 mM NH4Cl, 10 mM KHCO3, 0.1 mM Na2EDTA, pH 7.3) for 10 minutes to lyse red blood cells. Samples were then centrifuged at 1000 rpm. The supernatant was discarded. Cells were resuspended in 10 ml complete RPMI media (RPMI-1640, BioWhitaker, Walkersville, Md.) supplemented with FCS (Sigma Aldrich, St. Louis, Mo.); 2 mM L-glutamine (BioWhitaker); 50 μM 2-β-mercaptoethanol (Sigma Aldrich); 100 U/ml penicillin; and 100 μg/ml streptomycin sulfate (Sigma Aldrich). Twenty μl of this sample was removed for cell enumeration. Forty ml of complete RPMI media was then added to the remaining sample and this was centrifuged at 1000 rpm for 10 minutes. The resulting PBL pellet was resuspended in complete RPMI media at a concentration of 1.5×10^6 cells per ml. CD3/CD28-coated plates were coated with antibody diluted in PBS (1 mg/mI). […] Some plates were analyzed immediately after the overnight incubation. Other plates were frozen at 20EC and then analyzed within 30 days of the initial study. [^3H]-Thymidine incorporation was then determined using a Packard TopCount NXT scintillation plate reader. […] The Δ proliferation index was then calculated by assessing the difference between the proliferation index at baseline and the proliferation index at various study time points as indicated.

[5] = system: IFN-Γ; experiment: ELISpot assay for T cell generation of IFN-Γ in PBLs from CAN patients; type: in vivo, human
Method: Once identified, study subjects were randomized and treated with either losartan (25-100 mg) as part of their anti-hypertensive regimen or with other types of anti-hypertensive agents, e.g., calcium channel blockers. Agents functioning as AT1R blockers were excluded. Neither group received ACE inhibitors. Study subjects were maintained on their standard immunosuppressive regimen (corticosteroids 5-10 mg orally daily; mycophenolate mofetil 500 to 1000 mg orally twice a day; and calcineurin inhibition with either tacrolimus (target levels 2-5 ng/ml), cyclosporine A (target levels 100-150 ng/ml), or rapamycin (target levels 5-15 ng/ml ). Eight to nine milliliters of whole blood taken at each time point from each individual were incubated at room temperature in 40 ml ACK lysis buffer (150 mM NH4Cl, 10 mM KHCO3, 0.1 mM Na2EDTA, pH 7.3) for 10 minutes to lyse red blood cells. Samples were then centrifuged at 1000 rpm. The supernatant was discarded. Cells were resuspended in 10 ml complete RPMI media (RPMI-1640, BioWhitaker, Walkersville, Md.) supplemented with FCS (Sigma Aldrich, St. Louis, Mo.); 2 mM L-glutamine (BioWhitaker); 50 μM 2-β-mercaptoethanol (Sigma Aldrich); 100 U/ml penicillin; and 100 μg/ml streptomycin sulfate (Sigma Aldrich). Twenty μl of this sample was removed for cell enumeration. Forty ml of complete RPMI media was then added to the remaining sample and this was centrifuged at 1000 rpm for 10 minutes. The resulting PBL pellet was resuspended in complete RPMI media at a concentration of 1.5×10^6 cells per ml. ELISpot assays were conducted according to the manufacturer's directions (Cellular Technology Ltd., Cleveland, Ohio). Briefly, after plating cells in the proliferation assay, the balance of the cells unused in that assay were used for the ELISpot assay at a concentration of 3×10^6 cells per ml. One hundred μl of RPMI media were added to each well with a multichannel pipetter. Aliquots of treated and untreated cells (300 μl) were added to the IFN-Γ and IL-5 wells with serial two-fold dilutions. The last row served as a media control. ELISpot plates were incubated for two days at 37EC. Plates were washed three times with PBS and then washed three times with PBS/Tween. Secondary detection antibodies (OptElA, IFN, and IL-5 obtained from the aforementioned kits) were diluted at 4 μl/ml in 1% BSA/PBS and added to the plates for 24 hours at 4EC. The plates were then washed four times with PBS/Tween. Streptavidin alkaline phosphatase 1:1000 (Dako Cytomation, Glostrop, Denmark, catalog no. D0396) 100 μl/well diluted in 1% BSA/PBS/Tween was then added to the plates at room temperature for two hours. […] Plate images were then scanned into computer images and spots analyzed using Immunospot-brand software (from CTL Technologies).

[6] = system: IL-4 or IL-5; experiment: ELISpot assay for IL-4 or IL-5 production in PBLs from CAN patients; type: in vivo, human; settings: following institution of ARB therapy (data not shown)
Method: Once identified, study subjects were randomized and treated with either losartan (25-100 mg) as part of their anti-hypertensive regimen or with other types of anti-hypertensive agents, e.g., calcium channel blockers. Agents functioning as AT1R blockers were excluded. Neither group received ACE inhibitors. Study subjects were maintained on their standard immunosuppressive regimen (corticosteroids 5-10 mg orally daily; mycophenolate mofetil 500 to 1000 mg orally twice a day; and calcineurin inhibition with either tacrolimus (target levels 2-5 ng/ml), cyclosporine A (target levels 100-150 ng/ml), or rapamycin (target levels 5-15 ng/ml ). ELISpot assays were conducted according to the manufacturer's directions (Cellular Technology Ltd., Cleveland, Ohio). Briefly, after plating cells in the proliferation assay, the balance of the cells unused in that assay were used for the ELISpot assay at a concentration of 3×10^6 cells per ml. One hundred μl of RPMI media were added to each well with a multichannel pipetter. Aliquots of treated and untreated cells (300 μl) were added to the IFN-Γ and IL-5 wells with serial two-fold dilutions. The last row served as a media control. ELISpot plates were incubated for two days at 37EC. […] Plate images were then scanned into computer images and spots analyzed using Immunospot-brand software (from CTL Technologies).

[7] = Systolic blood pressure in the study cohort; type: in vivo, human; settings: every clinic visit at 3-month intervals
Method: FIG. 1A is a graph depicting the systolic blood pressure in the study cohort. (The study cohort is described in the Examples.) Blood pressure was assessed at every clinic visit at 3-month intervals. […] Data shown are mean±standard deviation.”
as §1, §2

[8] = Estimated glomerular filtration rate (eGFR) in the study cohort; type: in vivo, human; settings: with institution of ARB therapy, compared to control group
Method: FIG. 1B is a graph depicting the estimated glomerular filtration rate (eGFR) in the study cohort. Estimated GFR was calculated using the second equation derived by Nankivell et al. at the time points designated in the Examples. […] The eGFR in the ARB-treated cohort (-o-) declined slightly after treatment as compared to the control group (-▪-). Data shown are mean±standard deviation.
as §1
as §2, with “production.” for “production. Subsequent whole blood samples were obtained at three-month intervals for serial analyses.”

[9] = system: STAT1; settings: losartan treatment; cited from earlier work
[10] = system: STAT3; settings: losartan treatment; cited from earlier work

For CCCc1nc2c(C)cc(-c3nc4ccccc4n3C)cc2n1Cc1ccc(-c2ccccc2C(=O)O)cc1 [Telmisartan, 4′-[(1,4′-dimethyl-2′-propyl [2,6′-bi-1H-benzimidazol]-1′-yl)methyl]-[1,1′-biphenyl]-2-carboxylic acid], the “solubility in strong acids” value ([1]; strong acids (except HCl)) is given as “sparingly soluble”, the “solubility in strong bases” value ([1]; strong bases) is given as “soluble” and the “solubility in water within a pH range” value ([1]; water, pH range of from 3 to 9) is given as “practically insoluble”.

For CCCCc1nc(Cl)c(C(=O)O)n1Cc1ccc(-c2ccccc2-c2nn[nH]n2)cc1 [active metabolite of losartan], the plasma-free fraction [2] is listed as 0.2%.

In the case of CCCCc1nc(Cl)c(CO)n1Cc1ccc(-c2ccccc2-c2nnn[nH]2)cc1.[K] [losartan, 2-butyl-4-chloro-1-[p-(o-1H-tetrazol-5-ylphenyl)benzyl]imidazole-5-methanol monopotassium salt], the “urinary H2O2 excretion” value ([3]; 6 months of treatment) is reported as 2.17 ± 0.42 µM, the “urinary H2O2 excretion” value ([3]; 9 months of treatment, p<0.05 vs. time 0) is reported as 1.65 ± 0.49 µM and the “urinary H2O2” value ([3]; baseline (time 0), ARB cohort) is reported as 2.51 ± 0.62 µM. For the same compound, the “reduction in T lymphocyte proliferation indices versus the control group” value ([4]; 6 month of losartan treatment, p<0.005) was 69±47 % decrease, the “reduction in T lymphocyte proliferation indices versus the control group” value ([4]; 9 month of losartan treatment, p<0.05) was 52±21 % decrease and the “Δ proliferation index (change from baseline)” value ([4]; three, six, and nine months, p<0.04) was “significant reduction”. The “IFN-Γ producing cells (ELISpot)” value ([5]; 3 months, p=0.01 vs control) was 4127±1289 spots per 1×10^6 cells, the “IFN-Γ producing cells (ELISpot)” value ([5]; 6 months, p=0.05 vs control) was 3899±1508 spots per 1×10^6 cells and the “IFN-Γ producing cells (ELISpot)” value ([5]; 9 months, p<0.001 vs control) was 3845±1493 spots per 1×10^6 cells. For the same compound, the “IFN-Γ producing cells (ELISpot)” value ([5]; 12 months, p<0.05 vs control) was 4276±1456 spots per 1×10^6 cells, the “IL-4 or IL-5 production” value [6] was “no significant change” and the “systolic blood pressure, ARB-treated versus non-ARB-treated cohort” value [7] was “no significant differences”. The eGFR [8] was “slight reduction”, the plasma-free fraction [2] was 1.3% and the “solubility in common organic solvents” value ([1]; acetonitrile and methyl ethyl ketone) was “slightly soluble”. The solubility in alcohols ([1]; alcohols) was “soluble”, the solubility in water ([1]; water) was “freely soluble” and the “phosphorylation of STAT1” value [9] was “decrease phosphorylation”. The “phosphorylation of STAT3” value [10] was “decrease phosphorylation”.
